Data from patent US9879050B2, “Substituted urea depsipeptide analogs as activators of the CLPP endopeptidase” (priority 2013, dated 2018).
In brackets after ≈: the same amount, converted by molar mass.

Legend:
S. pneumoniae DAW27 = assay: Minimal inhibitory concentration, microbroth dilution; type: cell-based; details: Streptococcus pneumoniae, DAW27, read-out: Minimal Inhibitory Concentration S. pneumoniae DAW27
Method in brief: (§1)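 Following CLSI M7-A7 microbroth dilution, twofold serial dilutions of compound (top final concentration 200 μM) were combined with an equal volume of broth inoculum at about 10^5 cfu/mL. Plates were incubated aerobically at 37 °C overnight, and the MIC was the lowest concentration preventing visible growth.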

E. faecails ATCC 33186 = assay: as above; type: cell-based; details: Enterococcus faecalis, ATCC33186, read-out: Minimal Inhibitory Concentration E. faecails ATCC 33186
Method in brief: as §1

S. aureus ClpP (Sa-ClpP) = biological target: T1, S. aureus ClpP (Sa-ClpP) (Staphylococcus aureus, UniProt Q2G036); assay: ClpP activation, casein-BODIPY digestion assay (first described method); type: biochemical; details: first described ClpP activation assay (**); 10 μM saClpP, 25 μg/ml BODIPY FL casein, 37° C.; read-out: ClpP Activation EC50
T1 construct: made in house; host or cells: E. coli BL21 (DE3)
Method in brief: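 Purified E. coli-expressed Sa-ClpP (10 μM) with 25 μg/ml BODIPY FL casein and 0-100 μM compound in 50 mM Tris pH 8, 200 mM KCl, 1 mM TCEP at 37° C. Fluorescence (ex 485/em 528 nm) read every 5 min over 45 min; velocities fit to dose-response for EC50 of 50% activation, in triplicate.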

[1] = Cytotoxicity assay, CellTiter-Glo cell viability; type: cell-based; details: African green monkey; Vero cells, 72 hours; read-out: Cytotoxicity IC50
Method in brief: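 Vero cells seeded overnight at 37 °C in DMEM with 10% FBS, then exposed to serial dilutions of compound for 72 h. Viability read by CellTiter-Glo luminescence; IC50 from duplicates, given as the range of two independent experiments.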

T1 sequence (Q2G036 whole entry): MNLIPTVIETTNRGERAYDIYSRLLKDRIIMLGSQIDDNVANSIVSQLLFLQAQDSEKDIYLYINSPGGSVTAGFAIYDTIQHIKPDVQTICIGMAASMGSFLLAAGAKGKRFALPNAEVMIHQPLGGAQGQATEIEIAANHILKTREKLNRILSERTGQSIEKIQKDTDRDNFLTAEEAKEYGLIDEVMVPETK

Row | SMILES | MIC (S. pneumoniae DAW27) | MIC (E. faecails ATCC 33186) | EC50 (S. aureus ClpP (Sa-ClpP)) | IC50 at 72 h [1]
1 | C[C@@H]1C[C@H]2C(=O)OC[C@H](NC(=O)[C@H](Cc3ccccc3)NC(=O)Nc3ccc(N(C)C)cc3)C(=O)N3CCC[C@H]3C(=O)N3CCCC[C@H]3C(=O)N[C@@H](C)C(=O)N2C1 [Compound 5, (S)—N-((2R,6S,8aS,14aS,20S,23aS)-2,6-Dimethyl-5,8,14,19,23-Pentaoxooctadecahydro-1H,5H,14H,19H-Pyrido[2,1-1]Dipyrrolo[2,1-C:2′,1′-L][1]Oxa[4,7,10,13]Tetraazacyclohexadecin-20-Yl)-2-(3-(4-(Dimethylamino)Phenyl)Ureido)-3-Phenylpropanamide] | 0.39 µM (≈ 0.307 µg/mL) | 0.78 µM (≈ 0.614 µg/mL) | 1300 ± 200 nM | 91.3 ± 12.7 µM
2 | C[C@@H]1C[C@H]2C(=O)OC[C@H](NC(=O)[C@H](Cc3ccccc3)NC(=O)Nc3ccccc3Cl)C(=O)N3CCC[C@H]3C(=O)N3CCCC[C@H]3C(=O)N[C@@H](C)C(=O)N2C1 [Compound 7, (S)-2-(3-(2-Chlorophenyl)Ureido)-N-((2R,6S,8aS,14aS,20S,23aS)-2,6-Dimethyl-5,8,14,19,23-Pentaoxooctadecahydro-1H,5H,14H,19H-Pyrido[2,1-I]Dipyrrolo[2,1-C:2′,1′-L][1]Oxa[4,7,10,13]Tetraazacyclohexadecin-20-Yl)-3-Phenylpropanamide] | 0.78 µM (≈ 0.607 µg/mL) | 3.13 µM (≈ 2.44 µg/mL) | 34600 ± 6800 nM | > 100 µM
3 | COc1ccc(NC(=O)N[C@@H](Cc2ccccc2)C(=O)N[C@H]2COC(=O)[C@@H]3C[C@@H](C)CN3C(=O)[C@H](C)NC(=O)[C@@H]3CCCCN3C(=O)[C@@H]3CCCN3C2=O)cc1 [Compound 6, (S)—N-((2R,6S,8aS,14aS,20S,23aS)-2,6-Dimethyl-5,8,14,19,23-Pentaoxooctadecahydro-1H,5H,14H,19H-Pyrido[2,1-1]Dipyrrolo[2,1-C:2′,1′-L][1]Oxa[4,7,10,13]Tetraazacyclohexadecin-20-Yl)-2-(3-(4-Methoxyphenyl)Ureido)-3-Phenylpropanamide] | 0.2 µM (≈ 0.155 µg/mL) | 0.78 µM (≈ 0.604 µg/mL) | 2000 ± 100 nM | > 100 µM
4 | C[C@@H]1C[C@H]2C(=O)OC[C@H](NC(=O)[C@H](Cc3ccccc3)NC(=O)Nc3cccc(Cl)c3)C(=O)N3CCC[C@H]3C(=O)N3CCCC[C@H]3C(=O)N[C@@H](C)C(=O)N2C1 [Compound 9, (S)-2-(3-(3-Chlorophenyl)Ureido)-N-((2R,6S,8aS,14aS,20S,23aS)-2,6-Dimethyl-5,8,14,19,23-Pentaoxooctadecahydro-1H,5H,14H,19H-Pyrido[2,1-I]Dipyrrolo[2,1-C:2′,1′-L][1]Oxa[4,7,10,13]Tetraazacyclohexadecin-20-Yl)-3-Phenylpropanamide] | 0.78 µM (≈ 0.607 µg/mL) | 1.56 µM (≈ 1.21 µg/mL) | 1000 ± 100 nM | 89 ± 5 µM
5 | C[C@@H]1C[C@H]2C(=O)OC[C@H](NC(=O)[C@H](Cc3ccccc3)NC(=O)Nc3ccc(Cl)cc3)C(=O)N3CCC[C@H]3C(=O)N3CCCC[C@H]3C(=O)N[C@@H](C)C(=O)N2C1 [Compound 3, (S)-2-(3-(4-Chlorophenyl)Ureido)-N-((2R,6S,8aS,14aS,20S,23aS)-2,6-Dimethyl-5,8,14,19,23-Pentaoxooctadecahydro-1H,5H,14H,19H-Pyrido[2,1-I]Dipyrrolo[2,1-C:2′,1′-L][1]Oxa[4,7,10,13]Tetraazacyclohexadecin-20-Yl)-3-Phenylpropanamide] | 0.2 µM (≈ 0.156 µg/mL) | 0.2 µM (≈ 0.156 µg/mL) | 3300 ± 200 nM | 63 ± 5.8 µM
